Data from patent US12637433B2, “Histone deacetylase inhibitors” (THE UNIVERSITY OF QUEENSLAND, priority 2020, dated 2026).
Where two headings read alike, the source gives them in different places.

What was measured:
Assay type in all cases: biochemical
[1] = target: T1, human HDAC1 enzyme (Homo sapiens, UniProt Q13547); assay: Human HDAC1 enzyme assay (Class I HDACs)
T1 construct: purchased BPS Bioscience
Experimental: The inhibitory effect of compounds on HDAC1 activity was assessed in vitro using an optimised assay performed in black/flat black wall 384-well plate (Corning Inc.). All reagents and compounds were prepared in HDAC1 assay buffer (25 mM Tris-HCl, 137 mM NaCl, 2.7 mM KCl, 1 mM MgCl2·H2O and 0.1 mg/mL bovine serum albumin; pH 8). Various concentrations of inhibitor were pre-incubated with 50 ng/mL human HDAC1 enzyme (BPS Bioscience) for 30 min at room temperature on a plate shaker. Substrate (Leu(Ac)-Gly-Lys(Ac)-AMC, 12 μM) were then added and incubated for 90 min at 37° C. in the dark. The enzymatic reaction was then incubated with the developer solution (1 mg/mL trypsin and 25 μM SAHA) for 15-20 min at room temperature. Fluorescence intensity was measured using PHERAstar plate reader (BMG Labtech) at 350 nm excitation and 460 nm emission.
(§1) Data analysis: Triplicate measurements were made for each data point and error bars represent mean±SEM of three independent experiments. All data were plotted and analysed using GraphPad Prism Version 6.0d for Mac OS X (GraphPad Software). Dose Response Curves plotted using 4 parameters logistic model.

[2] = target: T2, human HDAC7 enzyme (Homo sapiens, UniProt Q8WUI4); assay: Human HDAC7 enzyme assay (Class IIa HDACs); details: Table 8; recombinant human HDAC7
T2 construct: purchased Reaction Biology Corp
T2 sequence (Q8WUI4 whole entry): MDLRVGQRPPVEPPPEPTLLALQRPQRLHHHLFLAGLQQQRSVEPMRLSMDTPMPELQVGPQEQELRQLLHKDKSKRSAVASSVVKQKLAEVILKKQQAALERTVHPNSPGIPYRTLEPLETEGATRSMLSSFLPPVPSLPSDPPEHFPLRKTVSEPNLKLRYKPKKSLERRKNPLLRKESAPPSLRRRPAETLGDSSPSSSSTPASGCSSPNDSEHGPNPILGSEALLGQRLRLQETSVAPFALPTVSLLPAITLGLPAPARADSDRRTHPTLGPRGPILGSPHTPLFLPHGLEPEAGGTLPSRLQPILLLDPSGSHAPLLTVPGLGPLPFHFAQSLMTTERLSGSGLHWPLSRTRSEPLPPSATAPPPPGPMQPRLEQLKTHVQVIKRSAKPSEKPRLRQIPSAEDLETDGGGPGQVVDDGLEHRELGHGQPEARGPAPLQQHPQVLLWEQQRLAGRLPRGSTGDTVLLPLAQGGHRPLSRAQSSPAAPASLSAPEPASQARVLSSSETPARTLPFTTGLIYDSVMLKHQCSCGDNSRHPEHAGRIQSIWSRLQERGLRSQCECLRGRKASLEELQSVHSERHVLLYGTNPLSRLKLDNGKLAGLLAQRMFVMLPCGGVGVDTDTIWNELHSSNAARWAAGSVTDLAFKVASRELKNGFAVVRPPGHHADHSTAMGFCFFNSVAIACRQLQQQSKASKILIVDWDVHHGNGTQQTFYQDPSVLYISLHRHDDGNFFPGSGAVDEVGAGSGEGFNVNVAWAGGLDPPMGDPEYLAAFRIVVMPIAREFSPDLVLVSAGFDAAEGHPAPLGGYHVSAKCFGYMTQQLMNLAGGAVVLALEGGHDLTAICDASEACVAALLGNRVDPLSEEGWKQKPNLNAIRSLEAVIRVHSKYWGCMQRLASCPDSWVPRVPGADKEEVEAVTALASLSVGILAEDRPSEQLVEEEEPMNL

[3] = target: T3, human HDAC6 enzyme (Homo sapiens, UniProt Q9UBN7); assay: Human HDAC6 enzyme assay (Class IIb HDACs); details: Table 9; recombinant human HDAC
T3 construct: purchased Cayman Chemical
T3 sequence (Q9UBN7 whole entry): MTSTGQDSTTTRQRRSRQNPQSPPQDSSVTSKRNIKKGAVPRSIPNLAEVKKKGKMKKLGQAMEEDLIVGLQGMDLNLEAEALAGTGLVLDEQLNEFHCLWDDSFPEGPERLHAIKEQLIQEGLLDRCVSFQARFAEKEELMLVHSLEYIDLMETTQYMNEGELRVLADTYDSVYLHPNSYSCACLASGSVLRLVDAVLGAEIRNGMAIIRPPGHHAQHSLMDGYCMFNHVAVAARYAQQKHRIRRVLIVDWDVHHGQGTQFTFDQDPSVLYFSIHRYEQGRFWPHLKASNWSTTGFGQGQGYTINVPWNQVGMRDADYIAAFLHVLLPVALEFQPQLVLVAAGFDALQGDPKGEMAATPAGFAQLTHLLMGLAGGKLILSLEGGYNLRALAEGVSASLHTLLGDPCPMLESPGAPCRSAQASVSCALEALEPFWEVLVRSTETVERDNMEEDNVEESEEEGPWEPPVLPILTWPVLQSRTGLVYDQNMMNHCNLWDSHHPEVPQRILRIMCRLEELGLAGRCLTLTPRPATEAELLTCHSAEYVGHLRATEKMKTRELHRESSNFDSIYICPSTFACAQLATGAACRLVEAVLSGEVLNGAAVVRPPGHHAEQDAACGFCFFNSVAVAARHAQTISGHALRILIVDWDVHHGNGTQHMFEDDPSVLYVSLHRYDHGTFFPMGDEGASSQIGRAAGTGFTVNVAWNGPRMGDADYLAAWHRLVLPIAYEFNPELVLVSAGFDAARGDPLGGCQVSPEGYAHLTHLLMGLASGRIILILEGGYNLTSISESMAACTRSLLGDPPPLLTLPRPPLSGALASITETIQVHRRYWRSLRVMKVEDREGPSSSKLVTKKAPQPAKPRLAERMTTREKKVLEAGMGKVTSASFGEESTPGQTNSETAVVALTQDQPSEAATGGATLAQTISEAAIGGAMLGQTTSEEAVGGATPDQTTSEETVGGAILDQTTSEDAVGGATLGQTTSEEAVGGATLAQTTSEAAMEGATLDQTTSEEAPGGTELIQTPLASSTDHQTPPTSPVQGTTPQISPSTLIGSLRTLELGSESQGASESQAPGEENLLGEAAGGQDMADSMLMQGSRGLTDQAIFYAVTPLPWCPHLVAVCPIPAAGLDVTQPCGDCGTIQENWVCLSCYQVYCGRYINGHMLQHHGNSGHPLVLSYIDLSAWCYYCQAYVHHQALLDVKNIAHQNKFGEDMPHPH
Experimental: The inhibitory effect of compounds on HDAC6 activity was assessed in vitro using an optimised assay performed in black/flat black wall 384-well plate (Corning Inc.). All reagents and compounds were prepared in HDAC assay buffer (25 mM Tris-HCl, 137 mM NaCl, 2.7 mM KCl, 1 mM MgCl2·H2O and 0.1 mg/mL bovine serum albumin; pH 8). Various concentrations of inhibitor were pre-incubated with 100 ng/ml human HDAC6 enzyme (Cayman Chemical) for 15 min at room temperature on a plate shaker. Substrate (Boc-Lys(Ac)-AMC, 25 μM) were then added and incubated for 60 min at 37° C. in the dark. The enzymatic reaction was then incubated with the developer solution (1 mg/mL trypsin and 10 μM SAHA) for 15-20 min at room temperature. Fluorescence intensity was measured using PHERAstar plate reader (BMG Labtech) at 350 nm excitation and 460 nm emission.
as §1

[4] = target: HDAC4 (Homo sapiens, UniProt P56524); assay: Isoform selectivity, HDAC4 inhibition; details: Table 9; recombinant human HDAC; read-out: IC50, Class IIa HDAC4
Sequence of HDAC4 (P56524 whole entry, canonical isoform): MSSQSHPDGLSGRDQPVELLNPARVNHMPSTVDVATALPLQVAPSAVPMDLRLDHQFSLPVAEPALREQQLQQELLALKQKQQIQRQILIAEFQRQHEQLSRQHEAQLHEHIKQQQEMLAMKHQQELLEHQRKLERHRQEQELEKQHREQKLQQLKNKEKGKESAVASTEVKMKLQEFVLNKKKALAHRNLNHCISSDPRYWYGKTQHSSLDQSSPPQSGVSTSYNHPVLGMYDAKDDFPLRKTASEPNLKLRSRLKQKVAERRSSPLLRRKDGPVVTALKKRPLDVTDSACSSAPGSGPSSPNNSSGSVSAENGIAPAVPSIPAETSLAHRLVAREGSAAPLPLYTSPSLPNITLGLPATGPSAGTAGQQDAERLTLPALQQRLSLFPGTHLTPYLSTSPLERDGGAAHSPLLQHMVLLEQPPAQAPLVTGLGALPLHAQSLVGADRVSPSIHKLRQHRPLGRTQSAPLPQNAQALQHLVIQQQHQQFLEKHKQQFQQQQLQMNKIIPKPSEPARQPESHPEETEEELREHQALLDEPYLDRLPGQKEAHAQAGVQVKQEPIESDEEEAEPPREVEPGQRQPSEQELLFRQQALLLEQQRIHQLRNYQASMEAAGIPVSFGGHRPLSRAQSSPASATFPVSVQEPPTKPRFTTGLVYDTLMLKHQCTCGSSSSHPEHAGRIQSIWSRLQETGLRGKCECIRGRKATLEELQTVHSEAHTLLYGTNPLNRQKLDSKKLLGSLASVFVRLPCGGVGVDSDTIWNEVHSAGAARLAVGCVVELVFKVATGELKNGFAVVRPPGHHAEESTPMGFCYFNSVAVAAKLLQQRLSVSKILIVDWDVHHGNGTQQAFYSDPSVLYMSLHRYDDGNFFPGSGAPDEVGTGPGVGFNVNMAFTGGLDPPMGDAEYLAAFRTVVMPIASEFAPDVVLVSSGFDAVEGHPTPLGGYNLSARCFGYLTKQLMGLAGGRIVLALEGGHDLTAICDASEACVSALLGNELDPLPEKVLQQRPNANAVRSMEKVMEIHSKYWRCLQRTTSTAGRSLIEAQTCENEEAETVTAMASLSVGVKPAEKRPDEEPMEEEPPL

[5] = target: HDAC5 (Homo sapiens, UniProt Q9UQL6); assay: Isoform selectivity, HDAC5 inhibition; details: Table 9; recombinant human HDAC; read-out: IC50, Class IIa HDAC5
Sequence of HDAC5 (Q9UQL6 whole entry, canonical isoform): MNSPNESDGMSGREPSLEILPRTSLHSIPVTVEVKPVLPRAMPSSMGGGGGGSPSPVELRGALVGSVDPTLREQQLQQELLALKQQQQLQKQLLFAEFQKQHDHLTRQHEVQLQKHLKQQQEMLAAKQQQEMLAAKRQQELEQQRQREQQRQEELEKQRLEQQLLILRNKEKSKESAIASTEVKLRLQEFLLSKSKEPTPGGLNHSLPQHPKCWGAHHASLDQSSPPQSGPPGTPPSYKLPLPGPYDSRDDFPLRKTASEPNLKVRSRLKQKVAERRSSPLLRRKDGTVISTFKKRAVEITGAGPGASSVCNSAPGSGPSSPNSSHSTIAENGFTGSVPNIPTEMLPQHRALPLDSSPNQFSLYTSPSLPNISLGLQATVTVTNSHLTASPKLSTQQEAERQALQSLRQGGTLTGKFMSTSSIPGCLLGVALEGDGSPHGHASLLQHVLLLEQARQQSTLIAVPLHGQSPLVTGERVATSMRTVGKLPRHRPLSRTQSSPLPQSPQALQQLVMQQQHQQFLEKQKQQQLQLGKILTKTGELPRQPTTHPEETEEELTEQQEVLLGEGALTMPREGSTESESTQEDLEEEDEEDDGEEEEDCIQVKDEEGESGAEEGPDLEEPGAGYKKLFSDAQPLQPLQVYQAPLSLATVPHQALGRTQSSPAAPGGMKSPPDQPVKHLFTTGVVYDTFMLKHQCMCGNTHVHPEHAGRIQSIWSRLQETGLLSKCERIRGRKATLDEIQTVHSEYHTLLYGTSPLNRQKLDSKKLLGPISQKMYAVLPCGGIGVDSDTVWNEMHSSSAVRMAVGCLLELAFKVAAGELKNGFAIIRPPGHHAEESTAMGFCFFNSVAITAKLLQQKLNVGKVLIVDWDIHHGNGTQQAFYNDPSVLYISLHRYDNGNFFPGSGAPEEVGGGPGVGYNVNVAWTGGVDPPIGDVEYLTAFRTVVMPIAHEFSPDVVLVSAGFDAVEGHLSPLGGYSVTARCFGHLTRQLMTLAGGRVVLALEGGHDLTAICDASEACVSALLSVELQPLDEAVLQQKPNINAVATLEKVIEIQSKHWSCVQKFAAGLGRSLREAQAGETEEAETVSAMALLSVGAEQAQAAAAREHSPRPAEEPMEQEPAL

[6] = target: HDAC9 (Homo sapiens, UniProt Q9UKV0); assay: Isoform selectivity, HDAC9 inhibition; details: Table 9; recombinant human HDAC; read-out: IC50, Class IIa HDAC9
[7] = Table 8, recombinant human HDAC1, read-out: IC50 (nM) (HDAC1)
[8] = Table 9, recombinant human HDAC, read-out: IC50, Class I HDAC1

T1 sequence (Q13547 whole entry): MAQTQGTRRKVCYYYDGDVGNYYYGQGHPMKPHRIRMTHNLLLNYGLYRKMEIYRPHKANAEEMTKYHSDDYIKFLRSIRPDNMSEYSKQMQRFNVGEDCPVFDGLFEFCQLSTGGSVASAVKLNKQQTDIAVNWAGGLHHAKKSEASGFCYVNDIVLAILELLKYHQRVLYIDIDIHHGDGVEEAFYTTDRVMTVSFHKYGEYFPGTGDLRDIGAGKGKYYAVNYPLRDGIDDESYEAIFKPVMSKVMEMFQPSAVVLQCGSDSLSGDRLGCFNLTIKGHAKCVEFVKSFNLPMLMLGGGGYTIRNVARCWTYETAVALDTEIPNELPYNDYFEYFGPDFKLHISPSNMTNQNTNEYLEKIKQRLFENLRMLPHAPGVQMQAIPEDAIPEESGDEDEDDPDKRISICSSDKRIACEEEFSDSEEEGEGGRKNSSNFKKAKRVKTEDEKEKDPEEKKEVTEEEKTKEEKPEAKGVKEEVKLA

IC50 [1, 7] [nM]	IC50 [2] [nM]	Structure (SMILES)	IC50 [1, 8] [nM]	IC50 [3] [nM]	IC50 [4] [nM]	IC50 [5] [nM]	IC50 [6] [nM]
2360 ± 452	214 ± 54	O=C(NCc1ccc(C(=O)NO)c(-c2ccccc2)c1)Nc1cccc2cccnc12 [Example 2]					
> 10000	81 ± 14	O=C(NCc1ccc(C(=O)NO)c(-c2ccccc2)c1)c1ccc[nH]1 [Example 23]					
> 10000	59 ± 10	O=C(NCc1ccc(C(=O)NO)c(-c2ccccc2)c1)c1cc2ccccc2[nH]1 [Example 24]					
3840 ± 1630	> 10000	O=C(NCc1ccc(C(=O)NO)c(Br)c1)Nc1cccc2cccnc12 [Example 1, 2-bromo-N-hydroxy-4-((3-(quinolin-8-yl)ureido)methyl)benzamide, reference compound]					
2520 ± 1340	> 10000	O=C(NCc1ccc(C(=O)NO)c(Oc2ccccc2)c1)Nc1cccc2cccnc12 [Example 3, 2-phenoxy-N-hydroxy-4-((3-(quinolin-8-yl)ureido)methyl)benzamide, reference compound]					
2200	7.3 ± 1.2	Cc1nc2ccccc2c(=O)n1Cc1ccc(C(=O)NO)c(-c2ccccc2)c1 [compound 12]		1100	42 ± 7	9 ± 2	17 ± 3
3190 ± 816		O=C(NO)c1ccc(Cn2cnc3ccccc3c2=O)cc1-c1ccccc1 [Example 34]					

Second part, the compound before the results:

Structure (SMILES)	IC50 [1, 7] [nM]	IC50 [2] [nM]	IC50 [1, 8] [nM]	IC50 [3] [nM]	IC50 [4] [nM]	IC50 [5] [nM]	IC50 [6] [nM]
CN(C)c1ccc(C2(C(=O)Nc3ccc(C(=O)NO)c(-c4ccccc4)c3)CCCC2)cc1 [Example 64]	> 10000	556 ± 317					
O=C(NO)c1ccc(CN2C(=O)c3cccc(F)c3C2=O)cc1-c1ccccc1 [Example 55]	27000		27000	4400	13 ± 3	16 ± 2	183 ± 102
O=C(NO)c1ccc(CN2C(=O)c3ccccc3C2=O)cc1-c1ccccc1 [Example 36]	32000		32000	5700	28 ± 4	12 ± 2	133 ± 52
O=C(NO)c1ccc(CN2C(=O)c3ccccc3S2(=O)=O)cc1-c1ccccc1 [Example 56]	4900		4900	5500	48 ± 6	8 ± 1	93 ± 44
O=C(NO)c1ccc(NC(=O)C2(c3ccc(Br)cc3)CCCC2)cc1-c1ccccc1 [Example 65]	4900 ± 1710	1210 ± 700					
CC(C)C(C(=O)Nc1ccc(C(=O)NO)c(-c2ccccc2)c1)c1ccccc1 (stereo not drawn) [Example 59]	> 10000	555 ± 334					
NC(=O)c1ccc(Nc2ccc(C(=O)NO)c(-c3ccccc3)c2)cc1 [Example 79]	> 10000	43 ± 9					
Cc1cc(F)ccc1-c1cc(Cn2c(C)nc3ccccc3c2=O)ccc1C(=O)NO [Example 13]	4210 ± 1760	12 ± 1.2					
Cc1nc2ccccc2c(=O)n1Cc1ccc(C(=O)NO)c(-c2ccc(F)cc2)c1 [Example 14]	3200	6.4 ± 0.8		1300 ± 480	22 ± 3	8 ± 1	15 ± 3
